# Structures can show the parent of a compound that is named as a salt.
# Molecular target: T1, Human RET kinase cytoplasmic domain (Homo sapiens, UniProt P07949)
# T1 construct: made in house
# T1 sequence (P07949 658-1114): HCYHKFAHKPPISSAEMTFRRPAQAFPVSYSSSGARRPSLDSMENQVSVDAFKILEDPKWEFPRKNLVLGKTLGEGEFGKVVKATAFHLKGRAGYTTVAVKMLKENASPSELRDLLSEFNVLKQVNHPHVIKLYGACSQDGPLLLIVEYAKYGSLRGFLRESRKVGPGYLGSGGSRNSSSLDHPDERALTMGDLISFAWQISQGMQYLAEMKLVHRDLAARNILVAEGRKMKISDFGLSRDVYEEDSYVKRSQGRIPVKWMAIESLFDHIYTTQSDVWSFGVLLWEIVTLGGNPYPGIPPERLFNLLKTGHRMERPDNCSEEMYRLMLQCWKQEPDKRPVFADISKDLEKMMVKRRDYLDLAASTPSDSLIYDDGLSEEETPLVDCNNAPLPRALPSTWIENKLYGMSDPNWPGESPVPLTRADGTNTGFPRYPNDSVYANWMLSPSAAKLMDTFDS
# Experiment: RET kinase enzymatic assay
# Type: biochemical
# Protocol: GST-RET was purified using glutathione sepharose chromatography. The RET kinase enzymatic assay was performed in a total volume of 10 uL with increasing concentrations of RET kinase inhibitor as a singlet in a 384 well format as follows: RET inhibitor compound plates are prepared by adding 100 nL of RET inhibitor at different concentrations to a 384-well plate. 5 μL/well of a 2× enzyme mix (50 mM HEPES (4-(2-hydroxyethyl)-1-piperazineethanesulfonic acid); 1 mM CHAPS (3-[(3-cholamidopropyl)dimethylammonio]-1-propanesulfonate); 0.1 mg/mL BSA (bovine serum albumin); 1 mM DTT (dithiothreitol); 0.2 nM RET kinase) was added to the 384-well plate and incubated for 30 minutes at 23° C. 5 µL/well of a 2× substrate mix (50 mM HEPES; 1 mM CHAPS; 0.1 mg/mL BSA; 20 μM adenosine triphosphate; 20 mM MgCl2 and 1 μM biotinylated peptide substrate) was added and incubated for 1 hour at 23° C. […] IC50s were fitted using GraphPad Prism to a sigmoidal dose response.
row,IC50,SMILES
1,< 100 nM,CCOc1cc(-c2ccc(NC(=O)Nc3ccc(CCN(C)C)c(C(F)(F)F)c3)c(F)c2)c[nH]c1=O [Example 165]
2,< 100 nM,"CCOc1cc(-c2ncc(NC(=O)Nc3cc(C(F)(F)F)c(CN4CCN(CC)CC4)cc3F)cn2)c[nH]c1=O [Example 183, 1-(2-(5-Ethoxy-6-oxo-1,6-dihydropyridin-3-yl)pyrimidin-5-yl)-3-(4-((4-ethylpiperazin-1-yl)methyl)-2-fluoro-5-(trifluoromethyl)phenyl)urea trihydrochloride]"
3,< 100 nM,CCOc1cc(-c2ccc(NC(=O)Nc3cc(C(F)(F)F)ccc3O)c(F)c2)c[nH]c1=O [Example 141]
4,< 100 nM,"CCOc1cc(=O)[nH]cc1-c1ncc(NC(=O)Nc2cc(C(F)(F)F)c(CN3CCN(CC)CC3)cc2F)c(C)n1 [Example 191, 1-(2-(4-Ethoxy-6-oxo-1,6-dihydropyridin-3-yl)-4-methylpyrimidin-5-yl)-3-(4-((4-ethylpiperazin-1-yl)methyl)-2-fluoro-5-(trifluoromethyl)phenyl)urea trihydrochloride]"
5,< 100 nM,"CCOc1cc(=O)[nH]cc1-c1ncc(NC(=O)Nc2cc(C(C)(C)C(F)(F)F)on2)cn1 [Example 180, 1-(2-(4-Ethoxy-6-oxo-1,6-dihydropyridin-3-yl)pyrimidin-5-yl)-3-(5-(1,1,1-trifluoro-2-methylpropan-2-yl)isoxazol-3-yl)urea hydrochloride]"

# More lines, now with the values behind:
row,SMILES,IC50
1,CCOc1cc(-c2cnc(NC(=O)Nc3ccc(OC4(C)COC4)c(C(F)(F)F)c3)c(C)c2)c[nH]c1=O [Example 105],< 100 nM
2,"CCOc1cc(=O)[nH]cc1-c1ncc(NC(=O)Nc2cccc(C(F)(F)F)c2)c(C)n1 [Example 38, 1-(2-(4-Ethoxy-6-oxo-1,6-dihydropyridin-3-yl)-4-methylpyrimidin-5-yl)-3-(3-(trifluoromethyl)phenyl)urea]",< 100 nM
3,"CCOc1cc(-c2ccc(NC(=O)Nc3ccc(CN4CCOCC4)c(C(F)(F)F)c3)c(F)c2)c[nH]c1=O [Example 45, 1-(4-(5-Ethoxy-6-oxo-1,6-dihydropyridin-3-yl)-2-fluorophenyl)-3-(4-(morpholinomethyl)-3-(trifluoromethyl)phenyl)urea]",< 100 nM
4,"CCOc1cc(-c2ncc(NC(=O)Nc3ccc(C#N)c(C(F)(F)F)c3)c(C)n2)c[nH]c1=O [Example 43, 1-(4-Cyano-3-(trifluoromethyl)phenyl)-3-(2-(5-ethoxy-6-oxo-1,6-dihydropyridin-3-yl)-4-methylpyrimidin-5-yl)urea]",< 100 nM
5,"CCOc1cc(-c2ncc(NC(=O)Nc3cc(C(F)(F)F)c(CN4CCN(CC)CC4)cc3F)c(C)n2)c[nH]c1=O [Example 32, 1-(2-(5-Ethoxy-6-oxo-1,6-dihydropyridin-3-yl)-4-methylpyrimidin-5-yl)-3-(4-((4-ethylpiperazin-1-yl)methyl)-2-fluoro-5-(trifluoromethyl)phenyl)urea]",< 100 nM
6,"CCOc1cc(-c2ccc(NC(=O)Nc3ccc(OC4(C)COC4)c(C(F)(F)F)c3)nc2)c[nH]c1=O [Example 27, 1-(5′-Ethoxy-6′-oxo-1′,6′-dihydro-[3,3′-bipyridin]-6-yl)-3-(4-((3-methyloxetan-3-yl)oxy)-3-(trifluoromethyl)phenyl)urea]",< 100 nM
7,"CC1(Oc2ccc(NC(=O)Nc3ccc(-c4c[nH]c(=O)c5ccoc45)cc3F)cc2C(F)(F)F)COC1 [Example 19, 1-(2-Fluoro-4-(4-oxo-4,5-dihydrofuro[3,2-c]pyridin-7-yl)phenyl)-3-(4-((3-methyloxetan-3-yl)oxy)-3-(trifluoromethyl)phenyl)urea]",< 100 nM
8,CC(C)Oc1cc(-c2ccc(NC(=O)Nc3ccc(OC4(C)COC4)c(C(F)(F)F)c3)c(F)c2)c[nH]c1=O [Example 136],< 100 nM
9,"CCOc1cc(-c2ccc(NC(=O)Nc3ccc(OC(C)C)c(C(F)(F)F)c3)c(C)n2)c[nH]c1=O [Example 5, 1-(5′-Ethoxy-6-methyl-6′-oxo-1′,6′-dihydro-[2,3′-bipyridin]-5-yl)-3-(4-isopropoxy-3-(trifluoromethyl)phenyl)urea]",< 100 nM
10,CCOc1cc(-c2ccc(NC(=O)Nc3ccc(OC4(C)COC4)c(C(F)(F)F)c3)cc2)c[nH]c1=O [Example 140],< 100 nM
